The test system of assay [1] is human breast cancer MCF-7 cell line. Put plainly: MTT cytotoxicity assay against MCF-7 breast cancer cells. The assay is classed as cell-based. Particulars: for IC50: Homo sapiens, MCF7, MTT assay, MCF-7 cells, average of at least three independent experiments, read-out: Anticancer activity against MCF-7 cells IC50 mean ± SD. From the text:
MTT assay was used to evaluate the in vitro cytotoxicity of the new compounds against breast cancer cell lines MCF-7[38]. More details are present in the Supplementary file.
S1: In vitro cytotoxicity experiment
MTT assay was used to evaluate the in vitro cytotoxicity of the new compounds against breast cancer cell lines MCF-7 [39]. MTT assay depends on the reduction of the soluble 3-(4,5-methyl-2-thiazolyl)-2,5-diphenyl-2H-tetrazolium bromide (MTT) into a blue purple formazan product, mainly by mitochondrial reductase activity inside the living cells. The cells used in cytotoxicity […]
at 37 °C in a 5% CO 2 incubator. After 12 h, the test sampl e (2 μL) was added to the cells (2 × 10 4) in 96-well plates and cultured at 37 ◦C for 3 days. The cultured cells were mixed with 20 μL of MTT solution and incubated for 4 h at 37 °C. The supernatant was carefully removed from each well and 100 μL of DMSO we re added to each well to dissolve the formazan crystals which were formed by the cellular reduction of MTT. […]

Assay [2] relates to MCF-7 cells. The assay is described as follows: Annexin-V/PI apoptosis assay by flow cytometry. The assay is classed as cell-based, human. To be noted: compound at its IC50 concentration, 24 h. Here is the method: (§1) Cell cycle analysis and apoptosis investigation were carried out by flow cytometry.[39]^,[40] […] After treatment with the tested compound, for 24 h, cell pellets were collected and centrifuged (300 g, 5 min).
Flow cytometry method[39]^,[49] has been used to detect the corresponding red (PI) and green (FITC) fluorescence. It has been noted that there was an increment in the percentages of the late apoptosis produced by the evaluated compounds 4b and 4j from 0.13% (control DMSO/MCF-7 cells) to 13.81% and 22.03%, respectively. Also, the tested compounds produced early apoptotic effects of 6.15% and 3.27% compared to 0.58% of the untreated MCF-7 cell with necrosis percent of 4.37% and 9.22%, respectively, vs. 0.66% produced by the DMSO control (Figures 4 and 5).
(Flow cytometry measures light scatter and fluorescence of single cells or particles in a stream.)

A further assay addresses PDGFR-α. The assay is described as follows: In vitro kinase inhibition assay, PDGFR-α. Particulars: for IC50: read-out: PDGFR-α IC50.
In a further assay the target is EGFR (Homo sapiens, UniProt P00533). The assay is described as follows: In vitro kinase inhibition assay, EGFR (Abcam Human In cell ELISA Kit).
Sequence of EGFR (P00533 25-1210): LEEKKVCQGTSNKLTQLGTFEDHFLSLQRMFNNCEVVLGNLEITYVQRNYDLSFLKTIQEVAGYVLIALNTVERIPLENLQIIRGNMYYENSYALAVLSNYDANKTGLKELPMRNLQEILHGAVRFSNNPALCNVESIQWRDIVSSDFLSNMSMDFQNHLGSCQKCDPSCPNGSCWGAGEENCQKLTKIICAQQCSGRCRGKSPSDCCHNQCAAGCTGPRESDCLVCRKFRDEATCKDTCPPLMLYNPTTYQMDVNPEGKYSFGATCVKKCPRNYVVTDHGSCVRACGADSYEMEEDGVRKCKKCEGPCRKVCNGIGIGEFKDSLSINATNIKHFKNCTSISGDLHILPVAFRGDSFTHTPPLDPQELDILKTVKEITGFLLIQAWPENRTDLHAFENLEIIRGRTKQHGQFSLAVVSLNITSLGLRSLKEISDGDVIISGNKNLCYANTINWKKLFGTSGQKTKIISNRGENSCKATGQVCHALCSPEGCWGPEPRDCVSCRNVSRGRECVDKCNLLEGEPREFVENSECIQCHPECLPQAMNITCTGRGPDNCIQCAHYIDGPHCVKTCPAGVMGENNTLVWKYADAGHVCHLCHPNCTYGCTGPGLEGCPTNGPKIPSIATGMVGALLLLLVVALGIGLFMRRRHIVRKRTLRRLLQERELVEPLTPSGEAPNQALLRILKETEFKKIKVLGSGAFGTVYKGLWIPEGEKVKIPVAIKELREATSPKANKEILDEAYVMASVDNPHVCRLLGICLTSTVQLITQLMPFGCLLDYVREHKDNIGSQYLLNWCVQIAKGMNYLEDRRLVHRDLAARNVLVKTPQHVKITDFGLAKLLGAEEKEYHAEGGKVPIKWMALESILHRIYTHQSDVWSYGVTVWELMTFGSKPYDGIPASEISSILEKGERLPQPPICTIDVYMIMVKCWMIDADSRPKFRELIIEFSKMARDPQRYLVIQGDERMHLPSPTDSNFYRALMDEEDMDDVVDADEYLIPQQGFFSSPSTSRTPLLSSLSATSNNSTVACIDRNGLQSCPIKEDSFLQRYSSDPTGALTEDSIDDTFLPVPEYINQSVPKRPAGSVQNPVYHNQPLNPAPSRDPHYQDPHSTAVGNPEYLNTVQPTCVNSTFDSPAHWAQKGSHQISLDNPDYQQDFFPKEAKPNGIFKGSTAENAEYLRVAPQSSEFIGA
The test system of assay [3] is MCF-7 cells. The assay is described as follows: Cell cycle analysis by flow cytometry. In kind it is cell-based, human. Particulars: for %G0–G1 / %G2/M / %Pre-G1 / %S: compound at its IC50 concentration, 24 h. Here is the method:
as §1
The induction of apoptosis is one of the most crucial tools that confirm the effectiveness of cancer therapy. Cell cycle checkpoints are G1 (restriction or start), S ([…]), and G2/M. One of the main functions of the anticancer therapeutics is stoppage of the cell division at these checkpoints.[51] […] The cells were stained with Annexin V/PI and examined using flow cytometry procedure.

The test system of the next assay is normal WI38 cells. The assay is described as follows: MTT assay against normal WI38 cells (safety profile). In kind it is cell-based, human. Particulars: for IC50: Homo sapiens, WI-38, MTT assay, normal WI38 cells derived from lung tissues, read-out: IC50 against the normal WI38 cells mean ± SD; for IC50 against WI38 cells, fold higher than IC50 of staurosporine: relative to staurosporine; for IC50 against WI38 cells, fold higher than IC50 against cancer (MCF-7) cells: WI38 vs MCF-7. From the text: One of the characteristics differentiating different anticancer agents from each other is the recurrence and severity of their side effects to the normal cells at their therapeutic doses. […].
(Tetrazolium dyes change colour on reduction, which living cells bring about.)

A further assay has as its target VEGFR-2 (Homo sapiens, UniProt P35968). Put plainly: In vitro kinase inhibition assay, VEGFR-2 (KDR Kinase Assay Kit).
Another assay deals with HER-2 (Homo sapiens, UniProt P04626). Put plainly: In vitro kinase inhibition assay, HER-2 (ADP-Glo Kinase Assay). On the technique in general: In ADP-Glo the light output rises with the ADP produced.
Sequence of HER-2 (P04626 23-1255): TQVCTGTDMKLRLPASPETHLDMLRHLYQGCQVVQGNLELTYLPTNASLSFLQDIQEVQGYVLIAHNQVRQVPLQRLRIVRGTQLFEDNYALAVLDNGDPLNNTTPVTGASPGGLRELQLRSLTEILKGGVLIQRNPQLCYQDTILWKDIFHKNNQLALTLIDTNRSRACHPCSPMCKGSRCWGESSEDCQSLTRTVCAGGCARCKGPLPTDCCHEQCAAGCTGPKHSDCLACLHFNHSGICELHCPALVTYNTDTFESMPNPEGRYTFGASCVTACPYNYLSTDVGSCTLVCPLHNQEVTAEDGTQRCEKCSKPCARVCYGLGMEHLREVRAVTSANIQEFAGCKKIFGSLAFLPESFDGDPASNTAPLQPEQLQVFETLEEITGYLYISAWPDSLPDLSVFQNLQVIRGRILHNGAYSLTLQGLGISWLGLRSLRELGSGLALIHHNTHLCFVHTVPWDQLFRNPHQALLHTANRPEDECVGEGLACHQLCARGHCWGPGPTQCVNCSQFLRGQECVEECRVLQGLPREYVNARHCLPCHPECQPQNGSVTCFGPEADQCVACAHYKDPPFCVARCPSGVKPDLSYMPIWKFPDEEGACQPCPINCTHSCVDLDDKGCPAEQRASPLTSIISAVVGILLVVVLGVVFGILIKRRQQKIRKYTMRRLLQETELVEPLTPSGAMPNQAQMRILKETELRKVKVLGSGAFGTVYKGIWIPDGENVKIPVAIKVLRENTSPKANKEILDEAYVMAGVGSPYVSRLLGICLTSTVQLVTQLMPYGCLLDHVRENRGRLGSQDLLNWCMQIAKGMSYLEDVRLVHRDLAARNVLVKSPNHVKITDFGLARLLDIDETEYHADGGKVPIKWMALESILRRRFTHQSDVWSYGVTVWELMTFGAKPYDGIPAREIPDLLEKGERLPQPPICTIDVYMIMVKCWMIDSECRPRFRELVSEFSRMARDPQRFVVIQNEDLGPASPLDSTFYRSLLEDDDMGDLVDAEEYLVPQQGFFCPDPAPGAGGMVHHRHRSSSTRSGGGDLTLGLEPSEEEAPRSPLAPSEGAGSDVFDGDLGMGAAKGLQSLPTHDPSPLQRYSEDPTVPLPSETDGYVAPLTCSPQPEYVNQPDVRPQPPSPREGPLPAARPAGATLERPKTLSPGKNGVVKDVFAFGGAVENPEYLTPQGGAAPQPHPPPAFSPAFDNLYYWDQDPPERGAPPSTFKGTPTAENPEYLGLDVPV

The values below come from publication PMC8259865, “Design and green synthesis of novel quinolinone derivatives of potential anti-breast cancer activity against MCF-7 cell line targeting multi-receptor tyrosine kinases” (Journal of Enzyme Inhibition and Medicinal Chemistry, 2021).

Entries after “also recorded” stand apart in the source; their conditions may differ.

Sequence of VEGFR-2 (P35968 20-1356): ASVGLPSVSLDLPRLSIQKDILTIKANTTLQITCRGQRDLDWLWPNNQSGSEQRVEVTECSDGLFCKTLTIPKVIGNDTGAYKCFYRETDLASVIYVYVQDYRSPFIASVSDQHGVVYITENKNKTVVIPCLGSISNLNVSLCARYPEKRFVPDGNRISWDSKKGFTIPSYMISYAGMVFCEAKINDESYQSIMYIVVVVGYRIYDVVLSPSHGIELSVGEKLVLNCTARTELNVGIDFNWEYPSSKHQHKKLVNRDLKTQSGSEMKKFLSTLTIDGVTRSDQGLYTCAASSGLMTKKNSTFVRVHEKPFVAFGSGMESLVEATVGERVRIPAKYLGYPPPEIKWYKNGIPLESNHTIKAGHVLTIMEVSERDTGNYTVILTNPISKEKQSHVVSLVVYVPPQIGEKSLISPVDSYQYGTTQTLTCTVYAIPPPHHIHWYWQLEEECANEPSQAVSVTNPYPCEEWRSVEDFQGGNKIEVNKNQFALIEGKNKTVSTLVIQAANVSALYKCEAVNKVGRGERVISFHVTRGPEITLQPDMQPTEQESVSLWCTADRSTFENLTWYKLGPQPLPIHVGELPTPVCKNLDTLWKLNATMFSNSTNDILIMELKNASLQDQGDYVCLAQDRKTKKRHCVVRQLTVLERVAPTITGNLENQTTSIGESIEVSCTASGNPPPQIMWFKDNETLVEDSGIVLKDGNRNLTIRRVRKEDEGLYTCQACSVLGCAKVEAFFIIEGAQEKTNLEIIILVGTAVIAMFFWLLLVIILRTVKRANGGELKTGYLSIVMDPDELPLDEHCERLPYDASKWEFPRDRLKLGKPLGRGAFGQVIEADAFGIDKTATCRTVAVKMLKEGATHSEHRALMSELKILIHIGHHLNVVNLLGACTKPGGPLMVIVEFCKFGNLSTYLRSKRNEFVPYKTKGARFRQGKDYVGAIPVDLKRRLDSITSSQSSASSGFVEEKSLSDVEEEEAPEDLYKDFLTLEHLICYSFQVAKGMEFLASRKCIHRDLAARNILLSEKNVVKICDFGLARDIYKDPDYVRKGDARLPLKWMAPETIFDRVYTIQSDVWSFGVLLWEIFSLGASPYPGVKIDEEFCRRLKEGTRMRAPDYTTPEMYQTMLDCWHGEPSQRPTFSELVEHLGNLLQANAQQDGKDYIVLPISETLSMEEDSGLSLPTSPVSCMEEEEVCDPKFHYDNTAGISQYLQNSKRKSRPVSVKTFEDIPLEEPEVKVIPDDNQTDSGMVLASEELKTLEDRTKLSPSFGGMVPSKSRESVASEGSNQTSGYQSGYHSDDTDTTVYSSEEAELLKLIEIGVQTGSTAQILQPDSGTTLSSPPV
Excerpt for HER-2: (§2) The procedure of the used kits was done according to the manufacturer, s instructions.
(§3) Which are: EGFR, human epidermal growth factor receptor (HER2), PDGFR-α, and VEGFR-2.
Excerpt for PDGFR-α: as §2, §3
Excerpt for VEGFR-2: as §2, §3

By IC50 is commonly meant the point on the concentration scale where inhibition reaches its midpoint. For `COC(=O)C1=C(C)NC2=C(C(=O)CC(C)(C)C2)C1c1ccc(S(=O)(=O)c2ccccc2)cc1` (stereo not drawn) [Compound 4a, Methyl 2,7,7-trimethyl-5-oxo-4–(4-(phenylsulfonyl)phenyl)-1,4,5,6,7,8-hexahydroquinoline-3-carboxylate], in assay [1], the IC50 stood at 103 ± 13 nM.
Regarding `CCOC(=O)C1=C(C(F)(F)F)NC2=C(C(=O)CC(C)(C)C2)C1c1ccc(S(=O)(=O)c2ccccc2)cc1` (stereo not drawn) [Compound 4b, Ethyl 7,7-dimethyl-5-oxo-4–(4-(phenylsulfonyl)phenyl)-2-(trifluoromethyl)-1,4,5,6,7,8-hexahydroquinoline-3-carboxylate], the IC50 in assay [1] is 2 ± 1 nM. Moreover, the “fold more potent than staurosporine against MCF-7” value in assay [1] (ratio of IC50 values, MCF-7) is on record as “about 2.5 fold”. In the assay on MCF-7 cells [2], this compound showed an early apoptotic effect of 6.15%, a late apoptosis percentage of 13.81% and a necrosis percent of 4.37%. Besides, on PDGFR-α, the IC50 was 0.21 ± 0.04 nM. The midpoint of inhibition against EGFR, the IC50, lay at 0.11 ± 0.03 nM. In the assay on MCF-7 cells [3], the “%G0–G1” value was determined as 45.26%, the “%G2/M” value amounted to 18.03%, the “%Pre-G1” value worked out at 24.33% and the “%S” value is on record as 36.71%. Also, in the assay with normal WI38 cells, the IC50 amounted to 45 ± 13 nM; the “IC50 against WI38 cells, fold higher than IC50 of staurosporine” value is “about 3 fold”; the “IC50 against WI38 cells, fold higher than IC50 against cancer (MCF-7) cells” value was 24 fold. Besides, at VEGFR-2, half-maximal inhibition (IC50) was put at 1.05 ± 0.02 nM and the “VEGFR-2 inhibitory effect, fold less than Sorafenib” value is on record as “about 6.2 fold”. The same compound had an IC50 on HER-2 of 0.3 ± 0.05 nM.
Regarding `CCOC(=O)C1=C(N)NC2=C(C(=O)CC(C)(C)C2)C1c1ccc(S(=O)(=O)c2ccccc2)cc1` (stereo not drawn) [Compound 4c, Ethyl 2-amino-7,7-dimethyl-5-oxo-4–(4-(phenylsulfonyl)phenyl)-1,4,5,6,7,8-hexahydroquinoline-3-carboxylate], in assay [1], the IC50 amounted to 15 ± 2 nM.
Consider `CC1(C)CC(=O)C2=C(C1)NC(N)=C(C(=O)c1ccccc1)C2c1ccc(S(=O)(=O)c2ccccc2)cc1` (stereo not drawn) [Compound 4d, 2-Amino-3-benzoyl-7,7-dimethyl-4–(4-(phenylsulfonyl)phenyl)-4,6,7,8-tetrahydroquinolin-5(1H)-one], for which the IC50 in assay [1] came out at 7 ± 1 nM. Further, the “fold less potent than staurosporine against MCF-7” value in assay [1] (ratio of IC50 values, MCF-7) was found to be 1.4 fold.
As for `Cc1ccc(C(=O)C2=C(N)NC3=C(C(=O)CC(C)(C)C3)C2c2ccc(S(=O)(=O)c3ccccc3)cc2)cc1` (stereo not drawn) [Compound 4e, 2-Amino-7,7-dimethyl-3–(4-methylbenzoyl)-4–(4-(phenylsulfonyl)phenyl)-4,6,7,8-tetrahydroquinolin-5(1H)-one], the half-inhibitory concentration (IC50) in assay [1] worked out at 4 ± 2 nM. In the assay on normal WI38 cells, the IC50 was determined as 14.9 ± 3 nM; the “IC50 against WI38 cells, fold higher than IC50 of staurosporine” value was “approximately equal”; the “IC50 against WI38 cells, fold higher than IC50 against cancer (MCF-7) cells” value came out at 4 fold.
With `CC1(C)CC(=O)C2=C(C1)NC(N)=C(C(=O)c1ccc(Br)cc1)C2c1ccc(S(=O)(=O)c2ccccc2)cc1` (stereo not drawn) [Compound 4f, 2-Amino-3–(4-bromobenzoyl)-7,7-dimethyl-4–(4-(phenylsulfonyl)phenyl)-4,6,7,8-tetrahydroquinolin-5(1H)-one], in assay [1], the IC50 stood at 27 ± 14 nM.
As to `COC(=O)C1=C(C)NC2=C(C(=O)CC(C)(C)C2)C1c1ccc(S(=O)(=O)c2ccc(C)cc2)cc1` (stereo not drawn) [Compound 4g, Methyl 2,7,7-trimethyl-5-oxo-4–(4-tosylphenyl)-1,4,5,6,7,8-hexahydroquinoline-3-carboxylate], in assay [1], the IC50 stood at 27 ± 3 nM.
Still for that read-out and setting: with `CCOC(=O)C1=C(C(F)(F)F)NC2=C(C(=O)CC(C)(C)C2)C1c1ccc(S(=O)(=O)c2ccc(C)cc2)cc1` (stereo not drawn) [Compound 4h, Ethyl 7,7-dimethyl-5-oxo-4–(4-tosylphenyl)-2-(trifluoromethyl)-1,4,5,6,7,8-hexahydroquinoline-3-carboxylate] the figure was 41 ± 6 nM.
With `CCOC(=O)C1=C(N)NC2=C(C(=O)CC(C)(C)C2)C1c1ccc(S(=O)(=O)c2ccc(C)cc2)cc1` (stereo not drawn) [Compound 4i, Ethyl 2-amino-7,7-dimethyl-5-oxo-4–(4-tosylphenyl)-1,4,5,6,7,8-hexahydroquinoline-3-carboxylate], the IC50 in assay [1] came to 23 ± 3 nM.
In the case of `Cc1ccc(S(=O)(=O)c2ccc(C3C(C(=O)c4ccccc4)=C(N)NC4=C3C(=O)CC(C)(C)C4)cc2)cc1` (stereo not drawn) [Compound 4j, 2-Amino-3-benzoyl-7,7-dimethyl-4–(4-tosylphenyl)-4,6,7,8-tetrahydroquinolin-5(1H)-one], the concentration for half-maximal inhibition (IC50) in assay [1] is 3 ± 5 nM. In the assay on MCF-7 cells [2], this compound had an early apoptotic effect of 3.27%, a late apoptosis percentage of 22.03% and a necrosis percent of 9.22%. Also, in the assay with PDGFR-α, the “PDGFR-α inhibition, fold more than sorafenib” value stood at 1.9 fold and the IC50 is 0.07 ± 0.01 nM. On EGFR, this compound returned an IC50 of 0.07 ± 0.02 nM. In addition, in the assay on MCF-7 cells [3], the “cell cycle effect in MCF-7 cells” value is “cell cycle disruption at G2/M phase; also recorded: cell cycle arrest at G2/M phase”, the “%G0–G1” value worked out at 36.99%, the “%G2/M” value is listed as 31.17% and the “%Pre-G1” value turned out to be 34.52%. In the assay with MCF-7 cells [3], the “%S” value is on record as 31.84%. For the same compound, in the assay on normal WI38 cells, the IC50 came out at 48 ± 8 nM and the “IC50 against WI38 cells, fold higher than IC50 of staurosporine” value is given as “about 3 fold”. At VEGFR-2, the IC50 came out at 0.3 ± 0.06 nM and the “VEGFR-2 inhibitory effect, fold less than Sorafenib” value is about 1.8 fold. Besides, at HER-2, the “HER-2 inhibition, folds more potent than Sorafenib” value was “about 1.6 fold” and the IC50 worked out at 0.17 ± 0.02 nM.
`Cc1ccc(C(=O)C2=C(N)NC3=C(C(=O)CC(C)(C)C3)C2c2ccc(S(=O)(=O)c3ccc(C)cc3)cc2)cc1` (stereo not drawn) [Compound 4k, 2-Amino-7,7-dimethyl-3–(4-methylbenzoyl)-4–(4-tosylphenyl)-4,6,7,8-tetrahydroquinolin-5(1H)-one]: in assay [1], the IC50 came to 4 ± 1 nM. In addition, in the assay with normal WI38 cells, the IC50 amounted to 17.6 ± 9 nM; the “IC50 against WI38 cells, fold higher than IC50 of staurosporine” value is on record as “approximately equal”; the “IC50 against WI38 cells, fold higher than IC50 against cancer (MCF-7) cells” value was found to be 4 fold.
As to `Cc1ccc(S(=O)(=O)c2ccc(C3C(C(=O)c4ccc(Br)cc4)=C(N)NC4=C3C(=O)CC(C)(C)C4)cc2)cc1` (stereo not drawn) [Compound 4l, 2-Amino-3–(4-bromobenzoyl)-7,7-dimethyl-4–(4-tosylphenyl)-4,6,7,8-tetrahydroquinolin-5(1H)-one], the half-inhibitory concentration (IC50) in assay [1] was found to be 7 ± 1 nM. For the same compound, in assay [1] (ratio of IC50 values, MCF-7), the “fold less potent than staurosporine against MCF-7” value stood at 1.4 fold.
Take `CN[C@@H]1C[C@H]2O[C@@](C)([C@@H]1OC)n1c3ccccc3c3c4c(c5c6ccccc6n2c5c31)C(=O)NC4` [Staurosporine, reference compound]: the IC50 in the assay on normal WI38 cells worked out at 13 ± 2 nM.
